Assay results taken from DBAASP.
In brackets after ≈: the same amount, converted by molar mass. Each block holds one molecule with its values, some of them ahead of it.

Key:
Test in all cases: ≥ marks a high value that may be exact or a test limit, other limits are often not marked, values filed in µg/mL are converted to µM
[1] = system: Staphylococcus aureus ATCC 25923
[2] = system: Enterococcus faecalis PCM 2673
[3] = system: Escherichia coli ATCC 25922
[4] = system: Candida albicans ATCC 10231
[5] = system: Pseudomonas aeruginosa ATCC 9027
[6] = system: Staphylococcus epidermidis
[7] = system: Staphylococcus aureus ATCC 6538P
[8] = system: Pseudomonas aeruginosa PAO1
[9] = system: Staphylococcus aureus ATCC BAA-41
Escherichia coli BL21 = system: Escherichia coli BL21
[10] = system: Salmonella enterica subsp. enterica serovar Typhimurium ATCC 14028s
[11] = system: Pseudomonas aeruginosa H374
[12] = system: Pseudomonas aeruginosa Z61
Escherichia coli UB1005 = system: Escherichia coli UB1005
[13] = system: Pseudomonas aeruginosa K799
[14] = system: Burkholderia cepacia ATCC 25416
[15] = system: Pseudomonas aeruginosa H744
[16] = system: Pseudomonas aeruginosa H547
[17] = system: Pseudomonas aeruginosa Ps4
[18] = system: Staphylococcus aureus ATCC 43300
[19] = system: Staphylococcus aureus SH1000
[20] = system: Pseudomonas aeruginosa ATCC 27853
[21] = system: Klebsiella pneumoniae ATCC 700603
[22] = system: Cryptococcus neoformans ATCC 208821
[23] = system: Acinetobacter baumannii ATCC 19606
[24] = system: Candida albicans ATCC 90028
[25] = system: Staphylococcus aureus ATCC 29231
[26] = system: Klebsiella aerogenes ATCC 13048
[27] = system: Pseudomonas aeruginosa PA14

Structure (SMILES): CC[C@H](C)[C@H](NC(=O)[C@H](CCCCN)NC(=O)[C@H](CCCCN)NC(=O)[C@@H](NC(=O)[C@@H](NC(=O)[C@H](CC(=O)O)NC(=O)[C@H](C)NC(=O)[C@H](CC(C)C)NC(=O)CN)[C@@H](C)CC)[C@@H](C)CC)C(=O)N[C@@H](C)C(=O)N[C@@H](CCC(=O)O)C(=O)N[C@@H](CO)C(=O)N[C@@H](Cc1ccccc1)C(N)=O [GLADIIKKIAESF]
MIC [1]: 365 µM (≈ 512 µg/mL) | MIC [2]: ≥ 182 µM | MIC [3]: 91.1 µM (≈ 128 µg/mL) | MIC [4]: 91.1 µM (≈ 128 µg/mL) | MIC [5]: 365 µM (≈ 512 µg/mL)

Structure (SMILES): CC[C@H](C)[C@H](NC(=O)[C@H](Cc1ccccc1)NC(=O)[C@H](CO)NC(=O)[C@H](CCCCN)NC(=O)[C@H](Cc1c[nH]c2ccccc12)NC(=O)[C@@H](N)CCCCN)C(=O)N[C@@H](CCCCN)C(=O)N[C@@H](CCCCN)C(=O)N[C@@H](CC(C)C)C(=O)N[C@H](C(=O)N[C@@H](CO)C(=O)N[C@@H](C)C(=O)N[C@@H](C)C(=O)N[C@@H](CCCCN)C(=O)N[C@@H](CCCCN)C(=O)N[C@H](C(=O)N[C@H](C(=O)N[C@H](C(=O)N[C@@H](C)C(=O)N[C@@H](C)C(=O)N[C@@H](CCCCN)C(=O)N1CCC[C@H]1C(=O)N[C@@H](CC(C)C)C(=O)N[C@H](C(=O)N[C@@H](CCCCN)C(=O)O)[C@@H](C)O)[C@@H](C)O)[C@@H](C)O)C(C)C)[C@@H](C)O [KWKSFIKKLTSAAKKVTTAAKPLTK]
MIC [10]: 15.5 µM (≈ 43 µg/mL) | MIC [11]: 2.88 µM (≈ 8 µg/mL) | MIC [12]: 8.65 µM (≈ 24 µg/mL) | MIC (Escherichia coli UB1005): 0.721 µM (≈ 2 µg/mL) | MIC [13]: 23.1 µM (≈ 64 µg/mL) | MIC [14]: 23.1 µM (≈ 64 µg/mL) | MIC [15]: 2.88 µM (≈ 8 µg/mL) | MIC [16]: 5.76 µM (≈ 16 µg/mL)

Structure (SMILES): CC[C@H](C)[C@H](NC(=O)CNC(=O)[C@@H](NC(=O)[C@H](CCCCN)NC(=O)[C@H](CCCCN)NC(=O)[C@H](Cc1ccccc1)NC(=O)[C@H](CC(C)C)NC(=O)[C@H](CCCCN)NC(=O)[C@H](Cc1c[nH]c2ccccc12)NC(=O)[C@@H](N)CCCCN)[C@@H](C)CC)C(=O)NCC(=O)N[C@@H](C)C(=O)N[C@H](C(=O)N[C@@H](CC(C)C)C(=O)N[C@@H](CCCCN)C(=O)N[C@H](C(=O)N[C@@H](CC(C)C)C(=O)N[C@H](C(=O)N[C@H](C(=O)NCC(=O)N[C@@H](CC(C)C)C(=O)N1CCC[C@H]1C(=O)N[C@@H](C)C(=O)N[C@@H](CC(C)C)C(=O)N[C@@H](CCCCN)C(=O)N[C@@H](CC(C)C)C(=O)N[C@H](C(=O)N[C@@H](CC(C)C)C(=O)N[C@@H](CCCCN)C(=O)O)[C@@H](C)O)[C@@H](C)O)[C@@H](C)O)C(C)C)C(C)C [KWKLFKKIGIGAVLKVLTTGLPALKLTLK]
MIC [10]: 0.944 µM (≈ 3 µg/mL) | MIC [12]: 0.944 µM (≈ 3 µg/mL) | MIC (Escherichia coli UB1005): 0.944 µM (≈ 3 µg/mL) | MIC [13]: 1.26 µM (≈ 4 µg/mL) | MIC [14]: 20.1 µM (≈ 64 µg/mL) | MIC [15]: 1.26 µM (≈ 4 µg/mL) | MIC [16]: 1.26 µM (≈ 4 µg/mL)

Structure (SMILES): CC[C@H](C)[C@H](NC(=O)[C@H](C)NC(=O)[C@H](CC(=O)O)NC(=O)[C@H](Cc1ccccc1)NC(=O)[C@H](CC(C)C)NC(=O)CN)C(=O)N[C@@H](CCCCN)C(=O)N[C@@H](CCCCN)C(=O)N[C@H](C(=O)N[C@@H](C)C(=O)N[C@@H](CCC(=O)O)C(=O)N[C@@H](CO)C(=O)N[C@@H](Cc1ccccc1)C(N)=O)[C@@H](C)CC [GLFDAIKKIAESF]
MIC [1]: > 356 µM | MIC [2]: ≥ 89 µM | MIC [3]: 178 µM (≈ 256 µg/mL) | MIC [4]: 178 µM (≈ 256 µg/mL) | MIC [5]: 356 µM (≈ 512 µg/mL)

Structure (SMILES): CC(C)C[C@H](NC(=O)[C@H](C)NC(=O)CNC(=O)[C@@H](NC(=O)[C@@H](NC(=O)[C@H](CCCCN)NC(=O)[C@H](CCCCN)NC(=O)[C@@H](NC(=O)[C@H](CC(C)C)NC(=O)[C@H](CCCCN)NC(=O)[C@H](CC(C)C)NC(=O)[C@H](CC(C)C)NC(=O)[C@@H](N)CCCCN)C(C)C)C(C)C)C(C)C)C(=O)NCC(N)=O [KLLKLVKKVVGALG]
MIC [18]: > 22 µM | MIC [19]: ≥ 33 µM | MIC [20]: > 22 µM | MIC [21]: > 22 µM | MIC [22]: 22 µM (≈ 32.2 µg/mL) | MIC [3]: > 22 µM | MIC [23]: > 22 µM | MIC [24]: 22 µM (≈ 32.2 µg/mL)

Structure (SMILES): CC(C)C[C@H](NC(=O)[C@H](C)NC(=O)[C@H](CCCCN)NC(=O)[C@H](CC(C)C)NC(=O)[C@H](CC(C)C)NC(=O)[C@H](CCCCN)NC(=O)[C@H](CCCCN)NC(=O)[C@H](CC(C)C)NC(=O)[C@H](CC(C)C)NC(=O)[C@H](CCCCN)NC(=O)[C@H](CC(C)C)NC(=O)[C@H](CC(C)C)NC(=O)[C@@H](N)CCCCN)C(=O)NCC(N)=O [KLLKLLKKLLKALG]
MIC [18]: 10 µM (≈ 15.8 µg/mL) | MIC [19]: ≥ 33 µM | MIC [20]: > 20 µM | MIC [21]: > 20 µM | MIC [22]: 3 µM (≈ 4.73 µg/mL) | MIC [3]: 20 µM (≈ 31.6 µg/mL) | MIC [23]: 1 µM (≈ 1.58 µg/mL) | MIC [24]: 20 µM (≈ 31.6 µg/mL)

Other lines, results leading:

MIC [6]: 0.25 µM (≈ 0.461 µg/mL) | MIC [7]: 16 µM (≈ 29.5 µg/mL) | MIC [8]: 0.707 µM (≈ 1.3 µg/mL) | MIC [9]: 16 µM (≈ 29.5 µg/mL) | MIC (Escherichia coli BL21): 0.5 µM (≈ 0.922 µg/mL)
Structure (SMILES): CC[C@H](C)[C@H](NC(=O)[C@H](CCCCN)NC(=O)[C@H](CCCCN)NC(=O)[C@H](Cc1ccccc1)NC(=O)[C@H](CCCCN)NC(=O)[C@H](CCCCN)NC(=O)[C@H](Cc1c[nH]c2ccccc12)NC(=O)[C@@H](N)CCCCN)C(=O)NCC(=O)N[C@@H](CCCCN)C(=O)N[C@H](C(=O)N[C@@H](CC(C)C)C(=O)N[C@@H](CCCCN)C(=O)N[C@H](C(=O)N[C@@H](CC(C)C)C(=O)O)C(C)C)C(C)C [KWKKFKKIGKVLKVL]

MIC [17]: ≥ 166 µM
Structure (SMILES): CC[C@H](C)[C@H](NC(=O)[C@H](CCCN=C(N)N)NC(=O)[C@@H](NC(=O)[C@H](CC(N)=O)NC(=O)[C@H](CCCN=C(N)N)NC(=O)[C@H](Cc1c[nH]c2ccccc12)NC(=O)[C@@H](N)Cc1ccccc1)[C@@H](C)CC)C(=O)N[C@@H](Cc1c[nH]c2ccccc12)C(=O)N[C@@H](CCCN=C(N)N)C(=O)N[C@@H](CCCN=C(N)N)C(N)=O [FWRNIRIWRR]

MIC [25]: 28.6 µM (≈ 64 µg/mL) | MIC [26]: ≥ 57.2 µM | MIC [4]: > 57.2 µM | MIC [27]: ≥ 57.2 µM
Structure (SMILES): CC[C@H](C)[C@H](NC(=O)[C@H](CCCCN)NC(=O)[C@H](Cc1c[nH]c2ccccc12)NC(=O)[C@H](CC(C)C)NC(=O)[C@@H](NC(=O)[C@H](CCCCN)NC(=O)[C@H](Cc1c[nH]c2ccccc12)NC(=O)[C@@H](N)CC(C)C)[C@@H](C)CC)C(=O)N[C@@H](Cc1c[nH]c2ccccc12)C(=O)N[C@@H](CCCN=C(N)N)C(=O)N[C@H](C(=O)N[C@@H](CC(C)C)C(=O)N[C@@H](CCCCN)C(=O)N[C@@H](CC(N)=O)C(=O)N[C@@H](Cc1c[nH]c2ccccc12)C(=O)N[C@@H](CCCN=C(N)N)C(=O)O)C(C)C [LWKILWKIWRVLKNWR]

MIC [17]: ≥ 157 µM
Structure (SMILES): NC(=O)CC[C@H](NC(=O)[C@H](Cc1c[nH]c2ccccc12)NC(=O)[C@@H](N)Cc1ccccc1)C(=O)N[C@@H](CCCN=C(N)N)C(=O)N[C@@H](CC(N)=O)C(=O)N[C@@H](Cc1c[nH]c2ccccc12)C(=O)N[C@@H](CCCN=C(N)N)C(=O)N[C@@H](Cc1c[nH]c2ccccc12)C(=O)N[C@@H](CCCN=C(N)N)C(=O)N[C@@H](CCCN=C(N)N)C(N)=O [FWQRNWRWRR]

MIC [6]: 0.5 µM (≈ 0.893 µg/mL) | MIC [7]: 16 µM (≈ 28.6 µg/mL) | MIC [8]: 0.707 µM (≈ 1.26 µg/mL) | MIC [9]: 16 µM (≈ 28.6 µg/mL) | MIC (Escherichia coli BL21): 0.354 µM (≈ 0.632 µg/mL)
Structure (SMILES): CC[C@H](C)[C@H](NC(=O)[C@H](CCCCN)NC(=O)[C@H](CCCCN)NC(=O)[C@H](Cc1ccccc1)NC(=O)[C@H](CCCCN)NC(=O)[C@H](CCCCN)NC(=O)[C@H](Cc1c[nH]c2ccccc12)NC(=O)[C@@H](N)CCCCN)C(=O)NCC(=O)N[C@@H](C)C(=O)N[C@H](C(=O)N[C@@H](CC(C)C)C(=O)N[C@@H](CCCCN)C(=O)N[C@H](C(=O)N[C@@H](CC(C)C)C(=O)O)C(C)C)C(C)C [KWKKFKKIGAVLKVL]
